Data: patent publication US7642051B2, “Screening methods for the identification of inhibitors of human immunodeficiency virus (HIV) viral protein R (Vpr) binding to the adenine nucleotide translocator (ANT)” (priority 2000, dated 2010)
“Also recorded” adds a separate entry of the source. Like-named read-outs stand apart in the source and are kept apart here. Where no end group is shown, it is not given here.

Experiments:
ANT-proteoliposomes = molecular target: T1, ANT-proteoliposomes (Rattus norvegicus, UniProt Q05962); format: binding
T1 construct: ANT is purified from rat heart and reconstituted in liposomes; from tissue; host or cells: rat heart
T1 sequence (Q05962 1-298): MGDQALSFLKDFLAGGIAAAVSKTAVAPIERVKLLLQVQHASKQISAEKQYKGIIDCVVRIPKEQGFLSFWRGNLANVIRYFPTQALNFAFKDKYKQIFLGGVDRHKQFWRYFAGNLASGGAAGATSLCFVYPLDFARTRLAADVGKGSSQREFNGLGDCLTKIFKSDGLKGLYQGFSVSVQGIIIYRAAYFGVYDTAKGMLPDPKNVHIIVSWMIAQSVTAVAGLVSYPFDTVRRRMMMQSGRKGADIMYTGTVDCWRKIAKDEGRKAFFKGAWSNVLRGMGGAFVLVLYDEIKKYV
Protocol: 1. Purification of ANT. ANT is purified from rat heart and reconstituted in liposomes according to the protocol described by Brenner et al., Oncogene, 2000.
2. Reconstitution of ANT in liposomes. ANT (0.03 mg/ml) is incorporated in liposomes composed of phosphatidylcholine and cardiolipine (PC:CL; 45:1; W: w; and 300 ng ANT per mg of lipids) in the presence of 0.3% n-octyl-β-D-pyranoside for 2 min. at room temperature. […] Then, the detergent is eliminated by dialyzing, overnight, the liposomes against the buffer 10 mM HEPES, 125 mM sucrose, pH7.4 at 4° C. (e.g.: about 11 of buffer per 1 ml liposomes).

ANT [1] = molecular target: T2, ANT (Rattus norvegicus, UniProt Q05962); format: binding; settings: X±SD, n=5; read-out: calculated KD of the interaction of ANT with Vpr52-96
T2 construct: from tissue; host or cells: rat heart
Source text: A. Plasma surface resonance sensorgrams of the interaction of ANT with Vpr52-96, Vpr52-96[R73A,80A] or an irrelevant control (Co).
B. Langmuir isotherm determined at different concentrations of ANT on sensorgrams corrected by subtraction of the blank (sensorgrams obtained with Vpr52-96[R73A,80A]).

purified mitochondria [2] = test: ΔΨm dissipation in purified mitochondria (JC-1 flow cytometry); format: biochemical; settings: for inhibition of Vpr-induced ΔΨm loss in purified mitochondria: 5 μM CsA, 50 μM BA, 0.8 μM Bcl-2, 2 μM PA10, Vpr52-96 3 μM, 5 min
Protocol: C. […] Purified mitochondria were treated with 1 μM Vpr52-96 subjected to cytofluorometric determination of the percentage of mitochondria having a low ΔΨm using the ΔΨm-sensitive fluorochrome JC-1. In parallel, cytochrome c was immunodetected in the supernatant of mitochondria.
Numbers indicate the percentage of JC-1^high and JC-1^low mitochondria among ˜10^4 events.
E. Quantitation of the frequency of JC-1^low mitochondria (X±SD, n=5) after incubation with different Vpr-derived peptides.

isolated mitochondria = test: Electron microscopy of isolated mitochondria (matrix swelling); format: biochemical; settings: for inhibition of Vpr-induced matrix swelling: Vpr52-96 3 μM, 0.8 μM Bcl-2 or 2 μM PA10
Source text: C. Ultrastructural effects of Vpr on isolated mitochondria.

ANT [3] = molecular target: T2, ANT; settings: surface plasmon resonance, Jacotot et al. 2000; cited from earlier work
ANT [4] = molecular target: T2, ANT; format: biochemical
Protocol: (§1) FIG. 3 presents electrophysiological properties of Vpr52-96 and ANT in planar lipid bilayers.
(§2) Single channel recordings were performed using the “Tip-Dip” technique. The recordings shown are representative for at least three independent determinations.
(§3) B. Statistical analysis of conductances obtained in A. Results were expressed as current distributions at different voltages. Conductances (γ; in picosiemens, pS) are calculated by division of current by voltage.

purified mitochondria [5] = test: Respirometry of purified mitochondria (respiratory control); format: biochemical; settings: 10 min after 1 μM peptide; control mitochondria 5.3
Protocol: A. Oxygen consumption curves after addition of the indicated agents. Trace a: control mitochondria (no pretreatment). Trace b: mitochondria pretreated for 10 min with 1 μM Vpr52-96. Numbers along the traces are nmol of 02 consumed min^−1 mg^−1 protein.
B. Respiratory control (RC) values calculated by dividing oxygen consumption in the presence of CCCP by that measured with oligomycin (determined as in A), 10 min after addition of 1 μM of Vpr-derived peptides (mean values of 3 determinations).

Vpr52-96 = Vpr52-96 (Human immunodeficiency virus type 1 group M subtype B, UniProt P69726)
ANT [6] = settings: 5 μM biotinylated Vpr52-96, 30 min
Protocol: (§4) Mitochondria were pre-incubated 10 min. with the indicated inhibitors and the percentage of FITC-Vpr52-96-labelled mitochondria is determined as in A. C. […] Mitochondria were incubated with the indicated inhibitors, and then exposed for 30 min at RT with 5 μM biotinylated Vpr52-96. Mitochondria were lysed either after incubation with biotinylated Vpr52-96 (upper panel) or lysed before (lower panel) with Tris/HCl as described in materials and methods. Biotinylated Vpr52-96 complexed with its mitochondrial ligands was retained on avidin-agarose and subjected to immunoblot detection of ANT.

COS cells = test: Vpr52-96-induced ΔΨm dissipation in intact microinjected cells; format: cell-based; settings: Bcl-2 10 μM, PA10 2 μM microinjected
Source text: A. Vpr52-96-induced ΔΨm dissipation induced in intact cells.

purified mitochondria [7] = test: Binding of FITC-Vpr52-96 to purified mitochondria; settings: pre-incubation 10 min
Protocol: Mitochondria were left unstained (insert in Co.) or exposed to the ΔΨm-insensitive mitochondrial dye MitoTracker® Green (75 nM), alone (MTG) or with 0.5 μM of FITC-Vpr52-96; green fluorescence), in combination with the ΔΨm-sensitive mitochondrial dye MitoTracker® Red (CMXRos; red Fluorescence) followed by cytofluorometric two-color analysis. Numbers indicate the percentage of mitochondria in each quadrant.
as §4

ANT [8] = molecular target: T3, ANT (Rattus norvegicus, UniProt Q05962); format: biochemical; remark: listed apart in the source
T3 construct: from tissue; host or cells: rat heart
T3 sequence (Q05962 whole entry, looked up): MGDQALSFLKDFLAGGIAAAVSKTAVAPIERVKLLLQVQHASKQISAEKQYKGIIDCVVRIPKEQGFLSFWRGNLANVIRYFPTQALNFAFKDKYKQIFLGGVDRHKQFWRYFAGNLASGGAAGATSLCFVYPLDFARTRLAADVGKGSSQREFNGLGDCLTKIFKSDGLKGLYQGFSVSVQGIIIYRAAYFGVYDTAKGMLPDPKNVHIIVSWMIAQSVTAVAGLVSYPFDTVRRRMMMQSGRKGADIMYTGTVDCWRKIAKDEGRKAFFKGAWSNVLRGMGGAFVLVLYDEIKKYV
Protocol: as §1, §2, §3

Vpr52-96-ANT interaction = molecular target: T4, Vpr52-96-ANT interaction (Rattus norvegicus, UniProt Q05962); format: binding; settings: BA 250 μM, Atr 50 μM, peptides 5 μM
T4 construct: from tissue; host or cells: rat heart (ANT)
T4 sequence (Q05962 2-298 limits assumed): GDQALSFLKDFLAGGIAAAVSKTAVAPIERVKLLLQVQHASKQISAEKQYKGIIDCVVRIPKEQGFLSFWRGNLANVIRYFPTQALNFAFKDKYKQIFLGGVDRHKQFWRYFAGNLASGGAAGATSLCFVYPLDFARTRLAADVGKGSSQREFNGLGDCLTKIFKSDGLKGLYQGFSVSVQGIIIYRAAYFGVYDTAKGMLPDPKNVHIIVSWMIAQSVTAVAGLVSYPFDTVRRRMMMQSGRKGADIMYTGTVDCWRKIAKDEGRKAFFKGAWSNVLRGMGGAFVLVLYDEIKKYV

[9] = molecular target: biotin-Vpr52-96 (biotinylated C-terminal moiety of HIV-1 Vpr) (HIV-1), P12520; test: surface plasmon resonance, Langmuir isotherm, peptide on biotinylated Vpr52-96
[10] = molecular target: T5, adenine nucleotide translocator (ANT), native purified, detergent-solubilized or reconstituted in liposomes / planar lipid bilayers (rat), Q05962; test: cell-based or functional assay
T5 chain: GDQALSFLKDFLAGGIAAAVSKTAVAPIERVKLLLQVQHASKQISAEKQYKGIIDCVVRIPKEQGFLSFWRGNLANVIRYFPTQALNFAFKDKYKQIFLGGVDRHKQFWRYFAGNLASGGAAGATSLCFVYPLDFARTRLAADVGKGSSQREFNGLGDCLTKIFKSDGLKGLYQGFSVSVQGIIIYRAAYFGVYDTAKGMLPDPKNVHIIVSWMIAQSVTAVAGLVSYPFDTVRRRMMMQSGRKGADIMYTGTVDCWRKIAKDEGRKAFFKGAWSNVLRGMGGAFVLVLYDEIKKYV

[11] = molecular target: T5, adenine nucleotide translocator (ANT), …; test: flow cytometry of liposomes; FITC-Vpr52-96 on ANT-proteoliposomes

In the case of CC[C@H](C)[C@H](NC(=O)[C@H](C)NC(=O)[C@H](CCC(=O)O)NC(=O)[C@@H](NC(=O)CNC(=O)[C@H](C)NC(=O)[C@H](Cc1c[nH]c2ccccc12)NC(=O)[C@@H](NC(=O)[C@@H](N)CC(=O)O)[C@@H](C)O)C(C)C)C(=O)N[C@H](C(=O)N[C@@H](CCCNC(=N)N)C(=O)N[C@H](C(=O)N[C@@H](CC(C)C)C(=O)N[C@@H](CCC(N)=O)C(=O)N[C@@H](CCC(N)=O)C(=O)N[C@@H](CC(C)C)C(=O)N[C@@H](CC(C)C)C(=O)N[C@@H](Cc1ccccc1)C(=O)N[C@H](C(=O)N[C@@H](Cc1c[nH]cn1)C(=O)N[C@@H](Cc1ccccc1)C(=O)N[C@@H](CCCNC(=N)N)C(=O)N[C@H](C(=O)NCC(=O)N[C@@H](CS)C(=O)N[C@@H](CCCNC(=N)N)C(=O)N[C@@H](Cc1c[nH]cn1)C(=O)N[C@@H](CO)C(=O)N[C@@H](CCCNC(=N)N)C(=O)N[C@H](C(=O)NCC(=O)N[C@H](C(=O)N[C@H](C(=O)N[C@@H](CCCNC(=N)N)C(=O)N[C@@H](CCC(N)=O)C(=O)N[C@@H](CCCNC(=N)N)C(=O)N[C@@H](CCCNC(=N)N)C(=O)N[C@@H](C)C(=O)N[C@@H](CCCNC(=N)N)C(=O)N[C@@H](CC(N)=O)C(=O)NCC(=O)N[C@@H](C)C(=O)N[C@@H](CO)C(=O)N[C@@H](CCCNC(=N)N)C(=O)N[C@@H](CO)C(=O)O)[C@@H](C)O)C(C)C)[C@@H](C)CC)[C@@H](C)CC)[C@@H](C)CC)[C@@H](C)CC)[C@@H](C)CC [Vpr52-96], the “Vpr52-96 binding to ANT liposomes compared to protein-free liposomes” value (ANT-proteoliposomes) is reported as “greatly facilitated”, the Kd (ANT [1]) is reported as 9.7 ± 6.4 nM and the “timing of ΔΨm loss relative to cytochrome c release” value (purified mitochondria [2]; Vpr52-96 1 μM) is reported as “well before cytochrome c release can be detected”. For the same molecule, the “ultrastructural effect on mitochondria” value (isolated mitochondria; 3 μM, 5 or 15 min) was “matrix swelling before OM rupture became apparent”, the “affinity of Vpr C-terminus for purified ANT” value (ANT [3]) was “high affinity in the nanomolar range” and the “conductance of Vpr52-96-ANT channels without any further addition” value (ANT [4]; as printed in Example 4) was 190±2. The “channel formation in planar lipid bilayers without ANT” value (ANT [4]; low doses (<1 nM), no ANT) was “incapable of forming channels” and the “respiratory control (RC) value” (purified mitochondria [5]) was 1.1.

In the case of Bcl-2: recombinant human Bcl-2 protein, the “effect on Vpr52-96 binding to membrane-associated ANT (ANT proteoliposomes)” value (ANT-proteoliposomes) is reported as “reduced Vpr52-96 binding”, the “binding of Bcl-2 to Vpr52-96” value (Vpr52-96) is reported as “did not bind Vpr52-96” and the “effect on affinity purification of ANT with biotinylated Vpr52-96, intact mitochondria” value (ANT [6]) is reported as “reduced the Vpr52-96-mediated recovery of ANT”. The “inhibition of Vpr-induced ΔΨm loss in purified mitochondria” value (purified mitochondria [2]) was “inhibited; also recorded: strongly reduced”, the “prevention of Vpr effect on intact cells by microinjection” value (COS cells) was “prevented” and the “inhibition of Vpr-induced matrix swelling” value (isolated mitochondria) was “inhibited; also recorded: strongly reduced”. The “effect on binding of Vpr52-96 to purified mitochondria” value (purified mitochondria [7]) was “failed to impair the binding” and the “effect on formation of Vpr52-96 induced channels in ANT-containing lipid bilayers” value (ANT [8]) was “abolished the formation of Vpr52-96 induced channels”.

In the case of CO[C@H](C/C=C\C=C\CC/C=C/C[C@H](C)/C=C/C(=C\C(=O)O)CC(=O)O)/C(C)=C\C=C(/C)C(=O)O [BA, bongkrekic acid, reference compound], the “modulation of the Vpr52-96-ANT interaction by ANT ligands and peptides” value (Vpr52-96-ANT interaction) is reported as “reduces Vpr binding”, the “effect on Vpr52-96 binding to membrane-associated ANT (ANT proteoliposomes)” value (ANT-proteoliposomes; BA 50 μM, Bcl-2 800 nM) is reported as “inhibited” and the “inhibition of Vpr-induced ΔΨm loss in purified mitochondria” value (purified mitochondria [2]) is reported as “inhibited”. The “inhibition of Vpr-induced matrix swelling” value (isolated mitochondria) was “inhibited” and the “effect on binding of Vpr52-96 to purified mitochondria” value (purified mitochondria [7]) was “partially reduced”.

For C=C1[C@@H]2CC[C@H]3[C@]4(C)C[C@H](O[C@@H]5O[C@H](CO)[C@@H](OS(=O)(=O)O)[C@H](OS(=O)(=O)O)[C@H]5OC(=O)CC(C)C)C[C@@H](C(=O)O)[C@H]4CC[C@]3(C2)[C@H]1O [Atr, atractyloside], the “modulation of the Vpr52-96-ANT interaction by ANT ligands and peptides” value (Vpr52-96-ANT interaction) was “favors Vpr binding”.

With DKRTQFWRYFAGN (modifications not checked) [ANT-2-derived peptide ANT104-116] the Kd [9] was 35000 nM.

Molecule DTWAGVEAIIRILQQLLFIHFRIGCRHSRIGVTRQRRARNGASRS (modifications not checked) [Vpr52-96, P12520 52-96] has a conductance of Vpr52-96-ANT channels in the presence of Bax [10] of 245 and a conductance of channels in planar lipid bilayers [10] of 190 pS.

With DTWAGVEAIIRILQQLLFIHFRIGCRHSRIGVTRQRRARNGASRS (not fully specified) [FITC-labeled Vpr52-96, P12520 52-96] the EC50 (read off the curve) [11] was 900 nM.
